Test results published in ChEMBL document CHEMBL6078718, “F-CPI: A Multimodal Deep Learning Approach for Predicting Compound Bioactivity Changes Induced by Fluorine Substitution” (J Med Chem, 2025).
pIC50: −log10 of the molar value.

Biological target: Replicase polyprotein 1ab (Severe acute respiratory syndrome coronavirus 2, UniProt P0DTD1)
Assay: Inhibition of 6xHis-tagged SARS-CoV-2 3CLpro using DKE as substrate preincubated for 60 mins followed by substrate addition measured after 20 mins by fluorescence based assay

Structure (SMILES)	pIC50
C[C@H](NC(=O)C(F)(F)F)C(=O)N(C)[C@@H](CC1CC1)C(=O)N1C[C@]2(C[C@H]1C#N)C(=O)Nc1ccccc12	7.59
CC(C)C[C@@H](C(=O)N1C[C@]2(C[C@H]1C#N)C(=O)Nc1ccccc12)N(C)C(=O)[C@H](C)NC(=O)C(C)(C)F	7.61
CC(=O)N[C@H](C(=O)N1C[C@H]2[C@@H]([C@H]1C(=O)N[C@H](C#N)C[C@@H]1CCNC1=O)C2(C)C)c1cc(Cl)c(OCCN(C)C)c(Cl)c1	4.55
CN(C)CCOc1c(Cl)cc([C@H](NC(=O)CF)C(=O)N2C[C@H]3[C@@H]([C@H]2C(=O)N[C@H](C#N)C[C@@H]2CCNC2=O)C3(C)C)cc1Cl	6.64
CC(C)C[C@@H](C(=O)N1C[C@]2(C[C@H]1C#N)C(=O)Nc1ccccc12)N(C)C(=O)[C@H](C)NC(=O)C(C)C	7.53
C[C@H](NC(=O)C(F)F)C(=O)N(C)[C@@H](CC1CC1)C(=O)N1C[C@]2(C[C@H]1C#N)C(=O)Nc1ccccc12	7.67
